Measured values reported in PubChem BioAssay (NCI).
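Step 1: Grow cells in 96-well plates. Step 2: Expose to compound for 48 hours at 5 concentrations. Step 3: Interpolate endpoints linearly; if unreached, use highest concentration. GI50 = concentration required for 50% inhibition of growth. TGI marks complete inhibition of growth.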

Experiments:
Experiment in all cases: NCI-60 cell line screen, 48 h
NCI-H23 lung = tested on: NCI-H23 lung
HCT-116 colon = tested on: HCT-116 colon
OVCAR-8 ovarian = tested on: OVCAR-8 ovarian
786-0 renal = tested on: 786-0 renal
OVCAR-3 ovarian = tested on: OVCAR-3 ovarian
DU-145 prostate = tested on: DU-145 prostate
LOX IMVI melanoma = tested on: LOX IMVI melanoma
SNB-19 CNS = tested on: SNB-19 CNS
SW-620 colon = tested on: SW-620 colon
HL-60(TB) leukemia = tested on: HL-60(TB) leukemia
PC-3 prostate = tested on: PC-3 prostate
K-562 leukemia = tested on: K-562 leukemia
HCT-15 colon = tested on: HCT-15 colon
SF-295 CNS = tested on: SF-295 CNS
RPMI-8226 leukemia = tested on: RPMI-8226 leukemia
EKVX NSCLC = tested on: EKVX NSCLC
T-47D breast = tested on: T-47D breast
MDA-MB-231 breast = tested on: MDA-MB-231 breast
COLO 205 colon = tested on: COLO 205 colon
HS 578T breast = tested on: HS 578T breast
M14 melanoma = tested on: M14 melanoma
SN12C renal = tested on: SN12C renal
UO-31 renal = tested on: UO-31 renal
HOP-92 NSCLC = tested on: HOP-92 NSCLC
A549 NSCLC = tested on: A549 NSCLC
TK-10 renal = tested on: TK-10 renal
SF-539 CNS = tested on: SF-539 CNS
NCI-H460 lung = tested on: NCI-H460 lung
ACHN renal = tested on: ACHN renal
KM12 colon = tested on: KM12 colon
CAKI-1 renal = tested on: CAKI-1 renal
SF-268 CNS = tested on: SF-268 CNS
UACC-257 melanoma = tested on: UACC-257 melanoma
U251 CNS = tested on: U251 CNS
HOP-62 NSCLC = tested on: HOP-62 NSCLC
BT-549 breast = tested on: BT-549 breast
SK-MEL-5 melanoma = tested on: SK-MEL-5 melanoma
OVCAR-5 ovarian = tested on: OVCAR-5 ovarian
MDA-MB-435 = tested on: MDA-MB-435
MCF7 breast = tested on: MCF7 breast
SK-OV-3 ovarian = tested on: SK-OV-3 ovarian
NCI/ADR-RES ovarian = tested on: NCI/ADR-RES ovarian
UACC-62 melanoma = tested on: UACC-62 melanoma

Structure (SMILES): CCSc1nc2[nH]c(=S)[nH]c(=S)c2c(-c2ccc(OC)c(OC)c2)c1C#N
- GI50 (NCI-H23 lung): 18.6 µM
- TGI (NCI-H23 lung): > 50 µM
- GI50 (HCT-116 colon): 18.2 µM
- TGI (HCT-116 colon): > 50 µM
- GI50 (OVCAR-8 ovarian): 18.9 µM
- TGI (OVCAR-8 ovarian): > 50 µM
- GI50 (786-0 renal): 16.5 µM
- TGI (786-0 renal): > 50 µM
- GI50 (OVCAR-3 ovarian): 11 µM
- TGI (OVCAR-3 ovarian): 34.6 µM
- GI50 (DU-145 prostate): 21.8 µM
- TGI (DU-145 prostate): > 50 µM
- GI50 (LOX IMVI melanoma): 14.5 µM
- TGI (LOX IMVI melanoma): > 50 µM
- GI50 (SNB-19 CNS): 21.4 µM
- TGI (SNB-19 CNS): > 50 µM
- GI50 (SW-620 colon): 26.5 µM
- TGI (SW-620 colon): > 50 µM
- GI50 (HL-60(TB) leukemia): 16.1 µM
- TGI (HL-60(TB) leukemia): > 50 µM
- GI50 (PC-3 prostate): 22.6 µM
- TGI (PC-3 prostate): > 50 µM
- GI50 (K-562 leukemia): 9.68 µM
- TGI (K-562 leukemia): 24.3 µM
- GI50 (HCT-15 colon): 16.5 µM
- TGI (HCT-15 colon): > 50 µM
- GI50 (SF-295 CNS): 18.9 µM
- TGI (SF-295 CNS): > 50 µM
- GI50 (RPMI-8226 leukemia): 16.8 µM
- TGI (RPMI-8226 leukemia): > 50 µM
- GI50 (EKVX NSCLC): 17 µM
- TGI (EKVX NSCLC): > 50 µM
- GI50 (T-47D breast): 23.5 µM
- TGI (T-47D breast): > 50 µM
- GI50 (MDA-MB-231 breast): 9.75 µM
- TGI (MDA-MB-231 breast): 40.3 µM
- GI50 (COLO 205 colon): 14.2 µM
- TGI (COLO 205 colon): 45.2 µM
- GI50 (HS 578T breast): 13.2 µM
- TGI (HS 578T breast): 45.8 µM
- GI50 (M14 melanoma): 15.2 µM
- TGI (M14 melanoma): > 50 µM
- GI50 (SN12C renal): 16.9 µM
- TGI (SN12C renal): > 50 µM
- GI50 (UO-31 renal): 11.7 µM
- TGI (UO-31 renal): 36 µM
- GI50 (HOP-92 NSCLC): 19 µM
- TGI (HOP-92 NSCLC): > 50 µM
- GI50 (A549 NSCLC): 14.8 µM
- TGI (A549 NSCLC): > 50 µM
- GI50 (TK-10 renal): 43.5 µM
- TGI (TK-10 renal): > 50 µM
- GI50 (SF-539 CNS): 14.8 µM
- TGI (SF-539 CNS): 35.4 µM
- GI50 (NCI-H460 lung): 21 µM
- TGI (NCI-H460 lung): > 50 µM
- GI50 (ACHN renal): 17.2 µM
- TGI (ACHN renal): > 50 µM
- GI50 (KM12 colon): 21.9 µM
- TGI (KM12 colon): > 50 µM
- GI50 (CAKI-1 renal): 17.4 µM
- TGI (CAKI-1 renal): > 50 µM
- GI50 (SF-268 CNS): 15.9 µM
- TGI (SF-268 CNS): 46.4 µM
- GI50 (UACC-257 melanoma): 16.5 µM
- TGI (UACC-257 melanoma): 43.7 µM
- GI50 (U251 CNS): 17.8 µM
- TGI (U251 CNS): > 50 µM
- GI50 (HOP-62 NSCLC): 19.8 µM
- TGI (HOP-62 NSCLC): > 50 µM
- GI50 (BT-549 breast): 14.6 µM
- TGI (BT-549 breast): 46.8 µM
- GI50 (SK-MEL-5 melanoma): 6.86 µM
- TGI (SK-MEL-5 melanoma): 21.5 µM
- GI50 (OVCAR-5 ovarian): > 50 µM
- TGI (OVCAR-5 ovarian): > 50 µM
- GI50 (MDA-MB-435): 10.5 µM
- TGI (MDA-MB-435): 42.5 µM
- GI50 (MCF7 breast): 22.1 µM
- TGI (MCF7 breast): > 50 µM
- GI50 (SK-OV-3 ovarian): 21.1 µM
- TGI (SK-OV-3 ovarian): > 50 µM
- GI50 (NCI/ADR-RES ovarian): 14.7 µM
- TGI (NCI/ADR-RES ovarian): 32.8 µM
- GI50 (UACC-62 melanoma): 14.3 µM
- TGI (UACC-62 melanoma): > 50 µM
